The results in this text go back to patent publication US11345711B2, “8,9-dihydroimidazo[1,2-a]pyrimido[5,4-e]pyrimidin-5(6H)-ones” (IMPACT THERAPEUTICS (SHANGHAI), INC, priority 2016, dated 2022).

Structures can show the parent of a compound that is named as a salt. Where two headings read alike, the source gives them in different places.

One experiment relates to NCI-H1299 cells. As to the kind of experiment: MTT based cell viability assay on NCI-H1299 cells. The settings on record: Homo sapiens, read-out: IC50, growth inhibition of NCI-H1299 cells. On the procedure:
Determination of the cell growth inhibiting activity of 6-(2-chlorophenyl)-2-((4-(4-methylpiperazin-1-yl)phenyl)amino)-8,9-dihydroimidazo[1,2-a]pyrimido[5,4-e]pyrimidin-5(6H)-one and analogs on NCI-H1299 cells using a MTT based cell viability assay
(§1) The thawed NCI-H1299 cells were cultured and passaged to the third generation, and the growth state was good and the confluence was about 90%, which began to be used in the experiment. The NCI-H1299 cells were digested with trypsin, centrifuged at 800 rpm for 5 min, the supernatant was discarded, resuspended with fresh culture group, and counted. 1000 Cells are seeded to each well of a 96-well plate. The cells are incubated at 37° C. in a 5% CO2 cell culture incubator overnight. The tested sample (including the tested compound and the reference compound AZD1775) was diluted continuously to 8 concentrations (the last concentration was negative control of DMSO) with a 1:3 and 1:10 dilution in DMSO respectively: 10 μM, 3.3 μM, 1 μM, 0.33 μM, 0.1 μM, 0.033 μM, 0.01 μM, 0 μM (the final concentration of DMSO was 1‰). 5 μL of each concentration was added to 120 μL of culture medium (25 times diluted), and the mixture was shaken well. The overnight cells were taken and the culture medium was removed, 195 μL of fresh culture medium was added to each well, and 5 μL of diluted culture medium containing the corresponding concentration of the tested sample was added respectively, and the culture plate was then placed in the 5% CO2 cell culture incubator at 37° C. for 3 d. After removing the original solution and adding 100 μL of fresh serum-free DMEM culture medium containing MTT (0.5 mg/mL) per well, the culture was continued. The original solution was removed after 4 hrs and 100 μl DMSO was added to each well. The 96-well cell culture plates were shaken away from light for 10 min and readed in a multifunctional reader at 552/630/690 nm to give absorption values (OD values). The data were analyzed using a commercial graphic software (Graph Pad Prism 5.0) and the inhibitory activity of the compound on cell proliferation was plotted in terms of cell survival and compound concentration. The IC50 values were fitted by the S-shaped dose-response curve equation as follows: Y=100/(1+10^(Log C−Log IC50)), where C was the concentration of testing compounds.

For the next experiment, the target named is Wee1 (h) (Homo sapiens, UniProt P30291). Nature of the experiment: Wee1 kinase (h) detection method, [γ-33P]-ATP filter assay. The class given is biochemical. As to the method:
Determination of the inhibitory effect of 6-(2-chlorophenyl)-2-((4-(4-methylpiperazin-1-yl)phenyl)amino)-8,9-dihydroimidazo[1,2-a]pyrimido[5,4-e]pyrimidin-5(6H)-one and Analogs on the Enzyme Activity of Wee1 Kinase by Using the Wee1 Kinase (h) Detection Method
Then the stock solution of all compounds under test with 50× concentration in 100% DMSO was added to make the final concentration of 10/1/0.1/0.01 μM, and then mixed the mixture well. The reaction is initiated by the addition of the Mg/ATP mix. After incubation for 40 minutes at room temperature, the reaction is stopped by the addition of phosphoric acid to a concentration of 0.5%. […] Each compound sample is duplicated in duplicate. The negative control was lack of all the components of Wee1 enzyme, and the positive was addition of 30% phosphoric acid to terminate the reaction. The Wee1 inhibitor AZD1775 was detected at 10 μM at the same experiment condition.

The subject of another experiment is LoVo cells. Nature of the experiment: MTT based cell viability assay on LoVo cells. The settings on record: Homo sapiens, LoVo, 72 h, 3 d, read-out: IC50, growth inhibition of LoVo cells. As to the method: Determination of the cell growth inhibiting activity of 6-(2-chlorophenyl)-2-((4-(4-methylpiperazin-1-yl)phenyl)amino)-8,9-dihydroimidazo[1,2-a]pyrimido[5,4-e]pyrimidin-5(6H)-one and analogs on LoVo cells using a MTT based cell viability assay
as §1, with “LoVo” for “NCI-H1299”, “medium,” for “group,”, “6000” for “1000”, “1%).” for “1‰).”, “C-Log” for “C−Log”

Sequence of Wee1 (h) (P30291 whole entry): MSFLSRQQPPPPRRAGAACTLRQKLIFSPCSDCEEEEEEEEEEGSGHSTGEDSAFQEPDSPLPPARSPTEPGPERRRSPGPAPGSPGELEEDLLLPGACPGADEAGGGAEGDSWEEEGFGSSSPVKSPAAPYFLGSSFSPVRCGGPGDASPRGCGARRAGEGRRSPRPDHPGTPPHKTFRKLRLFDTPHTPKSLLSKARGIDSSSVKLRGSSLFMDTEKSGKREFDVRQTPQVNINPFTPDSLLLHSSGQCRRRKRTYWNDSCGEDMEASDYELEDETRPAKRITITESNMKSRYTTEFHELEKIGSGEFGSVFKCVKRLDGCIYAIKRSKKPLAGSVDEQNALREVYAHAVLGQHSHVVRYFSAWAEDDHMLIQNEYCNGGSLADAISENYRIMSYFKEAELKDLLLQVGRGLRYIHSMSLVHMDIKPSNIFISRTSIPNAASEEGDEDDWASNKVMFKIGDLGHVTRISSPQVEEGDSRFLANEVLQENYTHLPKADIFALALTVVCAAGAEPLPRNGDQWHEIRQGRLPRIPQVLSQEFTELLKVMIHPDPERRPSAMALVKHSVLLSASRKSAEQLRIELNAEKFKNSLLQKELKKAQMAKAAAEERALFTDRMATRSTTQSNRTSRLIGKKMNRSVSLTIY

For the compound `Cc1cc(Nc2ncc3c(n2)N2CCN=C2N(c2c(C)cccc2Cl)C3=O)ccc1N1CCN(C)CC1` [Example 81, 6-(2-Chloro-6-methylphenyl)-2-((3-methyl-4-(4-methylpiperazin-1-yl)phenyl)amino)-8,9-dihydroimidazo[1,2-a]pyrimido[5,4-e]pyrimidin-5(6H)-one], the IC50 turned out to be 310 nM in the experiment with NCI-H1299 cells (NCI-H1299, NCI-H1299 cells) and 135 nM in the experiment on LoVo cells. Further, the “Inh. (%) of Wee1 kinase enzyme activity” value at Wee1 (h) (C 0.01 μm compound) is 7%; at Wee1 (h) (C 0.1 μm compound), 72%; on Wee1 (h) (C 1 μm compound), 89%.
Regarding `Cc1cccc(C)c1N1C(=O)c2cnc(Nc3ccc(N4CCN(C)CC4)cc3)nc2N2CCN=C21` [Example 83, 6-(2,6-Dimethylphenyl)-2-((4-(4-methylpiperazin-1-yl)phenyl)amino)-8,9-dihydroimidazo[1,2-a]pyrimido[5,4-e]pyrimidin-5(6H)-one], the results for the IC50 in the experiment on NCI-H1299 cells (NCI-H1299 cells) and in the experiment on LoVo cells were 1440 nM and 2900 nM, respectively. Besides, the “Inh. (%) of Wee1 kinase enzyme activity” value at Wee1 (h) (C 0.01 μm compound) is recorded as 15%; at Wee1 (h) (C 0.1 μm compound), 59%; on Wee1 (h) (C 1 μm compound), 94%.
Consider `CN(C)C1CCN(c2ccc(Nc3ncc4c(n3)N3CCN=C3N(c3c(F)cccc3Cl)C4=O)cc2)CC1` [Example 115, 6-(2-Chloro-6-fluorophenyl)-2-((4-(4-(dimethylamino)piperidin-1-yl)phenyl)amino)-8,9-dihydroimidazo[1,2-a]pyrimido[5,4-e]pyrimidin-5(6H)-one], for which the IC50 came to 381 nM in the experiment with NCI-H1299 cells (NCI-H1299, NCI-H1299 cells) and 265 nM with LoVo cells. Moreover, the figures for the “Inh. (%) of Wee1 kinase enzyme activity” value at Wee1 (h) (C 0.01 μm compound), at Wee1 (h) (C 0.1 μm compound) and at Wee1 (h) (C 1 μm compound) were 34%, 81% and 96%, respectively.
Regarding `CN1CCc2ccc(Nc3ncc4c(n3)N3CCN=C3N(c3c(F)cccc3Cl)C4=O)cc2C1` [Example 8, 6-(2-Chloro-6-fluorophenyl)-2-((2-methyl-1,2,3,4-tetrahydroisoquinolin-7-yl)amino)-8,9-dihydroimidazo[1,2-a]pyrimido[5,4-e]pyrimidin-5(6H)-one], the IC50 was 159 nM in the experiment on NCI-H1299 cells (NCI-H1299 cells) and 202 nM with LoVo cells. Also, the “Inh. (%) of Wee1 kinase enzyme activity” value at Wee1 (h) (C 0.01 μm compound) was found to be 60%; on Wee1 (h) (C 0.1 μm compound), 93%; on Wee1 (h) (C 1 μm compound), 99%.
On to `CN(C)C1CCN(c2ccc(Nc3ncc4c(n3)N3CCN=C3N(c3c(F)cccc3Cl)C4=O)cc2Br)CC1` [Example 118, 6-(2-Chloro-6-fluorophenyl)-2-((3-bromo-4-(4-(dimethylamino)piperidin-1-yl)phenyl)amino)-8,9-dihydroimidazo[1,2-a]pyrimido[5,4-e]pyrimidin-5(6H)-one], for which the IC50 with NCI-H1299 cells (NCI-H1299, NCI-H1299 cells) turned out to be 96.4 nM; with LoVo cells, 81.1 nM. In addition, the “Inh. (%) of Wee1 kinase enzyme activity” value on Wee1 (h) (C 0.01 μm compound) is on record as 25%; at Wee1 (h) (C 0.1 μm compound), 82%; on Wee1 (h) (C 1 μm compound) it was 96%.
As for `Cc1cc(Nc2ncc3c(n2)N2CCN=C2N(c2c(F)cccc2Cl)C3=O)ccc1N1C[C@@H](C)N(C)[C@@H](C)C1` [Example 51, 6-(2-Chloro-6-fluorophenyl)-2-((3-methyl-4-((3S,5R)-3,4,5-trimethylpiperazin-1-yl)phenyl)amino)-8,9-dihydroimidazo[1,2-a]pyrimido[5,4-e]pyrimidin-5(6H)-one], the IC50 in the experiment on NCI-H1299 cells (NCI-H1299, NCI-H1299 cells) was 165 nM; in the experiment with LoVo cells it was 105 nM. The results for the “Inh. (%) of Wee1 kinase enzyme activity” value on Wee1 (h) (C 0.01 μm compound), on Wee1 (h) (C 0.1 μm compound) and on Wee1 (h) (C 1 μm compound) were 66%, 86% and 96%, respectively.
For `Cc1cc(Nc2ncc3c(n2)N2CCN=C2N(c2c(Cl)cccc2Cl)C3=O)ccc1N1CCC(N(C)C)CC1` [Example 141, 6-(2,6-Dichlorophenyl)-2-((4-(4-(dimethylamino)piperidin-1-yl)-3-methylphenyl)amino)-8,9-dihydroimidazo[1,2-a]pyrimido[5,4-e]pyrimidin-5(6H)-one], the IC50 in the experiment with NCI-H1299 cells (NCI-H1299 cells) came to 42.9 nM; in the experiment with LoVo cells, 37.3 nM.
As to `Cc1cc(Nc2ncc3c(n2)N2CCN=C2N(c2c(C)cccc2Cl)C3=O)cc(F)c1N1CCC(N(C)C)CC1` [Example 170, 6-(2-Chloro-6-methylphenyl)-2-((4-(4-(dimethylamino)piperidin-1-yl)-3-fluoro-5-methylphenyl)amino)-8,9-dihydroimidazo[1,2-a]pyrimido[5,4-e]pyrimidin-5(6H)-one], the IC50 amounted to 89.9 nM with NCI-H1299 cells (NCI-H1299 cells) and 76.9 nM with LoVo cells.
Consider `CNCc1cc(Nc2ncc3c(n2)N2CCN=C2N(c2c(Cl)cccc2Cl)C3=O)ccc1N1CCOCC1` [Example 184, 6-(2,6-Dichlorophenyl)-2-((3-((methylamino)methyl)-4-morpholinophenyl)amino)-8,9-dihydroimidazo[1,2-a]pyrimido[5,4-e]pyrimidin-5(6H)-one], for which the results for the IC50 in the experiment with NCI-H1299 cells (NCI-H1299 cells) and with LoVo cells were 879 nM and 1490 nM, respectively.
On to `COc1cc(Nc2ncc3c(n2)N2CCN=C2N(c2c(Cl)cccc2Cl)C3=O)cc(C)c1N1CCN(C)CC1` [Example 159, 6-(2,6-Dichlorophenyl)-2-((3-methoxy-5-methyl-4-(4-methylpiperazin-1-yl)phenyl)amino)-8,9-dihydroimidazo[1,2-a]pyrimido[5,4-e]pyrimidin-5(6H)-one], for which the IC50 in the experiment with NCI-H1299 cells (NCI-H1299 cells) came out at 56.8 nM; in the experiment on LoVo cells it was 52.2 nM.
Regarding `Cc1cc(Nc2ncc3c(n2)N2CCN=C2N(c2c(Cl)cccc2Cl)C3=O)ccc1N1CCNCC1` [Example 177, 6-(2,6-Dichlorophenyl)-2-((3-methyl-4-(piperazin-1-yl)phenyl)amino)-8,9-dihydroimidazo[1,2-a]pyrimido[5,4-e]pyrimidin-5(6H)-one], the IC50 in the experiment with NCI-H1299 cells (NCI-H1299 cells) stood at 83.1 nM; in the experiment with LoVo cells it was 59.5 nM.
`CN1CCN(c2ccc(Nc3ncc4c(n3)N3CCN=C3N(c3c(Cl)cccc3Cl)C4=O)cc2Cl)CC1` [Example 186, 6-(2,6-Dichlorophenyl)-2-((3-chloro-4-(4-methylpiperazin-1-yl)phenyl)amino)-8,9-dihydroimidazo[1,2-a]pyrimido[5,4-e]pyrimidin-5(6H)-one dihydrochloride]: the IC50 turned out to be 154 nM in the experiment on NCI-H1299 cells (NCI-H1299 cells) and 42.4 nM with LoVo cells.
